Laboratory results as given in patent US11833185B2, “Anti-neurodegenerative therapeutic, method of manufacture, and use” (UNIVERSITY OF KENTUCKY RESEARCH FOUNDATION, priority 2017, dated 2023).
Where two headings read alike, the source gives them in different places. Where no end group is shown, it is not given here.

Key:
Parkinson's disease = settings: person
Protocol: A person presents with current diagnosis of Parkinson's disease with motor complications and responsiveness to levodopa or dopa agonists. They are buccally administered 100 mg at every 12 hours for 180 days. At 1, 90, 180, 270 and 360 days they are tested/retested with a battery of neurological tests including Unified Parkinson's Disease Rating Scale (UPDRS), Time Tests, Hoehn and Yahr (HY) Scale, Clinical Global Impression of Severity (CGIS), Clinical Impression of Severity Index (CISI-PD), Patient Global Impression of Severity (PGIS).
A person presents with diagnosis of Parkinson's disease. They are administered peptide by intranasal spray at a dosage of 25 mg, daily for 60 days. At 1, 90, 180, 270 and 360 days they are tested/retested with a battery of neurological tests including Unified Parkinson's Disease Rating Scale (UPDRS), Time Tests, Hoehn and Yahr (HY) Scale, Clinical Global Impression of Severity (CGIS), Clinical Impression of Severity Index (CISI-PD), Patient Global Impression of Severity (PGIS).

Alzheimer's disease = settings: person
[1] = system: substantia nigra levels of DA, DOPAC, HVA, 5-HT, 5-HIAA, and NE; assay: Substantia nigra neurochemistry (RP-HPLC EC) after repeated intranasal administration; format: in vivo, normal Fischer 344 rats; settings: for Turnover ratio 5-HIAA/5-HT / Turnover ratio (HVA + DOPAC)/DA / Turnover ratio DOPAC/DA / Turnover ratio HVA/DA / 5-HIAA / 5-HT / DA / DOPAC / HVA / NE: 5 days a week for 3 weeks, combined left and right substantia nigra, mean; for 5-HIAA / 5-HT / DA / DOPAC / HVA / NE: wet tissue weight; for decrease of NE levels: versus vehicle treated rats
Protocol: (§1) Groups of 12, 3 month old Fischer 344 rats were intranasally dosed 50 microliters (4 single 12.5 microliter administrations, 2 per nare, 5 minutes between each nare administration) of either vehicle, 1.1 mg/mL, or 3.5 mg/mL of AV6403 [Leu-Ala-Pro-Ala-Glu-Asp-NH2] (SEQ ID NO: 1) once a day for 5 days a week, for 3 weeks (5 consecutive days of dosing, 2 off days, repeated total of 3 times). Following day 21, rats were euthanized and brain tissue was recovered and sections removed and weighed for neurochemical analysis by Reverse-Phase High Pressure Liquid Chromatography Electrochemical detection (RP-HPLC EC).
In the SN [TABLE 3], treatment of AV6403 led to about a 13% increase in DOPAC and a 11% reduction of HVA, depending on the dosage, [FIG. 4A-FIG. 4C] resulting in an increase in dopamine turnover (20% [DOPAC/DA] for 3.5 mg/mL dosage; 23% [(HVA+DOPAC)/DA] for 1.1 mg/mL) relative to saline vehicle treated rats [FIG. 5A-FIG. 5B]. Treatment with 1.1 mg/mL AV6403 decreased 5-HT by 10% in the SN, resulting in a 16% increase in serotonin turnover [5-HIAA/5-HT] [TABLE 4]. The higher dosage (3.5 mg/mL AV6403) increased NE levels in the SN by about 23% versus vehicle treated rats, respectively [TABLE 3].
(§2) Groups of 12, 3 month old Fischer 344 rats were intranasally dosed 50 microliters (4 single 12.5 microliter administrations, 2 per nare, 5 minutes between each nare administration) of either vehicle, 1.2 mg/mL, or 3.6 mg/mL of AV7624 [Glu-Ala-Pro-Phe-Glu-Asp-NH2] once a day for 5 days a week, for 3 weeks (5 consecutive days of dosing, 2 off days, repeated total of 3 times). Following day 21, rats were euthanized and brain tissue was recovered and sections removed and weighed for neurochemical analysis by RP-HPLC EC.
In the SN [TABLE 7], treatment with 3.6 mg/mL AV7624 led to about a 23%, 22%, and a 6% decrease in DA, DOPAC, and HVA [FIG. 9A-FIG. 9C], relative to saline vehicle treated rats, with minor effects on dopamine turnover [FIG. 10A-FIG. 10B]. Treatment with 3.6 mg/mL AV7624 decreased 5-HT by 20% and 5-HIAA by about 18% in the SN [TABLE 7], resulting in a minor effect on serotonin turnover [TABLE 8]. NE levels in the SN were decreased (17% and 13%) by both dosages (1.2 mg/mL and 3.6 mg/mL) versus vehicle treated rats, respectively [TABLE 7].

[2] = system: striatum levels of DA, DOPAC, HVA, 5-HT, 5-HIAA, and NE; assay: Striatum neurochemistry (RP-HPLC EC) after repeated intranasal administration; format: in vivo, normal Fischer 344 rats; settings: for Turnover ratio 5-HIAA/5-HT / Turnover ratio (HVA + DOPAC)/DA / Turnover ratio DOPAC/DA / Turnover ratio HVA/DA / 5-HT / 5 HIAA / DA / DOPAC / HVA / NE: 5 days a week for 3 weeks, combined left and right striatum, mean; for 5-HT / 5 HIAA / DA / DOPAC / HVA / NE: wet tissue weight
Protocol: as §1
Dopamine [DA], its major metabolites 3,4-Dihydroxy-Phenylacetic Acid (DOPAC) and Homovanillic Acid (HVA), 5-hydroxytryptamine (5-HT, serotonin), its metabolite 5-hydroxyindoleacetic acid (5-HIAA), and norepinephrine (NE) were measured in the striatum and substantia nigra (SN) for each group. In the striatum [TABLE 1], 1.1 mg/mL dosing of AV6403 led to a 20% and 25% reduction of DA and HVA levels [FIG. 1A-FIG. 1C], respectively, resulting in an increase in dopamine turnover (22% [DOPAC/DA] and 16% [[(HVA+DOPAC)/DA]), relative to saline vehicle treated rats [FIG. 2A-FIG. 2B]. […] NE levels were reduced in the striatum with about a 36% reduction for AV6403 1.1 mg/mL dosage versus vehicle [TABLE 1].
as §2
DA, DOPAC, HVA, 5-HT, 5-HIAA, and NE were measured in the striatum and SN for each group. In the striatum [TABLE 5], 3.6 mg/mL dosing of AV7624 led to an approximate 18%, 39%, and 30% reduction of DA, DOPAC, and HVA levels [FIG. 6A-FIG. 6C], respectively, resulting in an about 18% decrease in dopamine turnover ([DOPAC/DA] and [(HVA+DOPAC)/DA]), relative to saline vehicle treated rats [FIG. 7A-FIG. 7B]. […] NE levels were reduced in the striatum in a dose dependent manner, with about a 32% reduction for the AV7624 3.6 mg/mL dosage versus vehicle [TABLE 5]

[3] = 3.6 mg/mL intranasal, SN, relative to saline vehicle treated rats
[4] = 3.6 mg/mL intranasal, striatum, relative to saline vehicle treated rats
[5] = 3.6 mg/mL repeated intranasal, striatum

Substance: Cyclo (cys-Leucine-Glycine-Proline-Phenylalanine-Serine-Glutamate-cys [SEQ ID NO: 5]
- additional test loss from day 1 over 360 days (Parkinson's disease; buccal 100 mg every 12 hours for 180 days): minimal to no additional test loss

Substance: D-Glutamate-Alanine-Proline-Phenylalanine-D-Alanine-Glycine-NH2 [SEQ ID NO: 7]
- cognitive loss from day 1 over 360 days (Alzheimer's disease; Alzheimer's Disease, buccal 25 mg daily for 60 days): minimal to no cognitive loss

Substance: Glu-Ala-Pro-Phe-Glu-Asp-NH2 (EAPFED-NH2) [AV7624]
- Turnover ratio 5-HIAA/5-HT ([1]; 1.2 mg/mL intranasal): 0.58
- Turnover ratio (HVA + DOPAC)/DA ([1]; 1.2 mg/mL intranasal): 0.34
- Turnover ratio DOPAC/DA ([1]; 1.2 mg/mL intranasal): 0.24
- Turnover ratio HVA/DA ([1]; 1.2 mg/mL intranasal): 0.10
- 5-HIAA ([1]; 1.2 mg/mL intranasal): 886 ng/g
- 5-HT ([1]; 1.2 mg/mL intranasal): 1546 ng/g
- DA ([1]; 1.2 mg/mL intranasal): 1918 ng/g
- DOPAC ([1]; 1.2 mg/mL intranasal): 472 ng/g
- HVA ([1]; 1.2 mg/mL intranasal): 184 ng/g
- NE ([1]; 1.2 mg/mL intranasal): 727 ng/g
- decrease of NE levels ([1]; 1.2 mg/mL intranasal, SN): 17%
- Turnover ratio 5-HIAA/5-HT ([1]; 3.6 mg/mL intranasal): 0.57
- Turnover ratio (HVA + DOPAC)/DA ([1]; 3.6 mg/mL intranasal): 0.35
- Turnover ratio DOPAC/DA ([1]; 3.6 mg/mL intranasal): 0.22
- Turnover ratio HVA/DA ([1]; 3.6 mg/mL intranasal): 0.13
- 5-HIAA ([1]; 3.6 mg/mL intranasal): 737 ng/g
- 5-HT ([1]; 3.6 mg/mL intranasal): 1251 ng/g
- DA ([1]; 3.6 mg/mL intranasal): 1523 ng/g
- DOPAC ([1]; 3.6 mg/mL intranasal): 376 ng/g
- HVA ([1]; 3.6 mg/mL intranasal): 177 ng/g
- NE ([1]; 3.6 mg/mL intranasal): 767 ng/g
- decrease of 5-HIAA ([1]; 3.6 mg/mL intranasal, SN): about 18%
- decrease of 5-HT ([1]; 3.6 mg/mL intranasal, SN): 20%
- effect on serotonin turnover ([1]; 3.6 mg/mL intranasal, SN): minor effect
- effects on dopamine turnover ([1]; 3.6 mg/mL intranasal, SN): minor effects
- decrease in DA [1, 3]: ~23%
- decrease in DOPAC [1, 3]: ~22%
- decrease in HVA [1, 3]: ~6%
- decrease of NE levels ([1]; 3.6 mg/mL intranasal, SN): 13%
- Turnover ratio 5-HIAA/5-HT ([2]; 1.2 mg/mL intranasal): 1.15
- Turnover ratio (HVA + DOPAC)/DA ([2]; 1.2 mg/mL intranasal): 0.38
- Turnover ratio DOPAC/DA ([2]; 1.2 mg/mL intranasal): 0.28
- Turnover ratio HVA/DA ([2]; 1.2 mg/mL intranasal): 0.09
- 5-HT ([2]; 1.2 mg/mL intranasal): 610 ng/g
- 5 HIAA ([2]; 1.2 mg/mL intranasal): 674 ng/g
- DA ([2]; 1.2 mg/mL intranasal): 13521 ng/g
- DOPAC ([2]; 1.2 mg/mL intranasal): 3906 ng/g
- HVA ([2]; 1.2 mg/mL intranasal): 1253 ng/g
- NE ([2]; 1.2 mg/mL intranasal): 83 ng/g
- Turnover ratio 5-HIAA/5-HT ([2]; 3.6 mg/mL intranasal): 1.05
- Turnover ratio (HVA + DOPAC)/DA ([2]; 3.6 mg/mL intranasal): 0.33
- Turnover ratio DOPAC/DA ([2]; 3.6 mg/mL intranasal): 0.24
- Turnover ratio HVA/DA ([2]; 3.6 mg/mL intranasal): 0.09
- 5-HT ([2]; 3.6 mg/mL intranasal): 487 ng/g
- 5 HIAA ([2]; 3.6 mg/mL intranasal): 499 ng/g
- DA ([2]; 3.6 mg/mL intranasal): 10762 ng/g
- DOPAC ([2]; 3.6 mg/mL intranasal): 2478 ng/g
- HVA ([2]; 3.6 mg/mL intranasal): 915 ng/g
- NE ([2]; 3.6 mg/mL intranasal): 67 ng/g
- decrease in dopamine turnover ([DOPAC/DA] and [(HVA+DOPAC)/DA]) [2, 4]: about 18%
- reduction of DA levels [2, 4]: about 18%
- reduction of DOPAC levels [2, 4]: ~39%
- reduction of HVA levels [2, 4]: ~30%
- reduction of NE levels ([2]; 3.6 mg/mL intranasal, striatum, versus vehicle): ~32%
- effect on turnover [5-HIAA/5-HT] [2, 5]: small effect
- reduction of 5-HIAA levels [2, 5]: ~30%
- reduction of 5-HT levels [2, 5]: ~28%
- effects on DA, 5-HT and their metabolites ([2]; lower dosage (1.2 mg/mL) intranasal, striatum): less robust effects

Substance: Glutamate-deuterated Lysine-Proline-D-Phenylalanine-deuterated Leucine-NH2 [SEQ ID NO: 8]
- additional UPDRS loss from day 1 over 360 days (Parkinson's disease; intranasal spray 25 mg daily for 60 days): minimal to no additional UPDRS loss

Substance: Leucine-Glycine-Proline-Phenylalanine-Serine-Glutamate
- cognitive loss from day 1 over 360 days (Alzheimer's disease; mild cognitive impairment Alzheimer's disease, intranasal 5 mg once per day for 360 days): minimal to no cognitive loss

Substance: Tryptophan-D-Alanine-Proline-D-Lysine-Asparagine-NH2 [SEQ ID NO: 6]
- cognitive loss from day 1 over 360 days (Alzheimer's disease; Alzheimer's disease, intranasal 100 mg once a week for 30 days): minimal to no cognitive loss
